Laboratory results published in article PMC11489133, “Obicetrapib exhibits favorable physiochemical and pharmacokinetic properties compared to previous cholesteryl ester transfer protein inhibitors: An integrated summary of results from non‐human primate studies and clinical trials” (Pharmacology Research & Perspectives, 2024).
Read-outs that look alike come from different tables or passages of the source.

How the values were obtained:
[1] = absorption, metabolism and excretion study of a single 10 mg dose of 14C-obicetrapib (NCT02408055, TA‐8995‐07); format: in vivo, humans; settings: male, human, in vivo
Description: Figure 2 illustrates the obicetrapib (TA‐8995) M1 detected above the LLOQ (>1% radioactivity) in human plasma expressed as the percent radioactivity profiled. A study (NCT02408055) was conducted in healthy male participants (n = 6) to assess the absorption, metabolism, and excretion of a single dose of 10 mg of ^14C‐obicetrapib (TA‐8995‐07 CSR, NewAmsterdam Pharma). One of the objectives of the study was to determine the chemical structure of ^14C‐obicetrapib M1 that represent ≥10% of total radioactivity in plasma. The participants received 10 mL ^14C‐obicetrapib oral suspension, containing 10 mg and 100 μCi of ^14C‐obicetrapib in the fasted state. Clinical samples for analysis were selected based upon the levels of radioactivity present as determined by liquid scintillation counting and were stored at below −50°C (nominally −80°C) when not in use. Plasma samples from the participants were sequentially extracted with acetonitrile at five time points. The resulting extracts were concentrated by evaporation and reconstituted in mobile phase HPLC prior to analysis by radio‐HPLC. All samples were analyzed by liquid scintillation counting to evaluate the recovery of radioactivity. The profiles of the radiolabeled components in each sample of plasma were determined by HPLC analysis with off‐line radio‐detection. Selected samples from each matrix were then further analyzed by high‐resolution mass spectrometry to investigate the identity of M1. In plasma, the predominant metabolite component was unchanged obicetrapib (~79% of total drug‐related exposure), and the most abundant plasma M1 were M1 and P9 of which each accounted for ~4% of total exposure (Figure 2). No significant differences in the metabolite profiles were observed across the samples obtained from the six participants (TA‐8995‐07 CSR, NewAmsterdam Pharma).

[2] = cited from earlier work
[3] = set-up: method as in PMID 28847206; settings: added to high‐intensity statin therapy, compared to placebo; cited from earlier work
[4] = pH 7.4; cited from earlier work
[5] = cited from earlier work; remark: listed apart in the source
[6] = cited from earlier work; remark: listed apart in the source

Structure (SMILES): CCC1CC(N(Cc2cc(C(F)(F)F)cc(C(F)(F)F)c2)c2ncc(OCCCC(=O)O)cn2)c2cc(C(F)(F)F)ccc2N1 (stereo not drawn) [M1]
- percent radioactivity profiled in human plasma [1]: approx. 4%

Structure (SMILES): O=C(O)COc1cnc(NCc2cc(C(F)(F)F)cc(C(F)(F)F)c2)nc1 [P9]
- percent radioactivity profiled in human plasma [1]: approx. 4%

Structure (SMILES): COc1cc(F)c(C(C)C)cc1-c1ccc(C(F)(F)F)cc1CN1C(=O)O[C@H](c2cc(C(F)(F)F)cc(C(F)(F)F)c2)[C@@H]1C [anacetrapib, Anacetrapib]
- PSA [2]: 39 Å^2
- reduced risk of major adverse coronary events [3]: 9%
- cLogDpH7.4 [4]: 9.2
- increase in plasma levels, fed versus fasted state ([5]; in vivo): 2-8 fold
- increase of AUC (0‐∞) by a high‐fat meal compared to a fasting state ([5]; in vivo): 6 fold
- increase of C max by a high‐fat meal compared to a fasting state ([5]; in vivo): 8 fold
- time detected in plasma after the last treatment dose ([6]; 76‐week DEFINE trial): up to 4 years
- half‐life ([6]; human, in vivo): up to 80 h
- accumulation in adipose tissue ([6]; subcutaneous adipose biopsy measurements, compared to plasma levels): accumulated in adipose tissue at much higher concentrations and for a prolonged period

Structure (SMILES): CCC(CC)CC1(C(=O)Nc2ccccc2SC(=O)C(C)C)CCCCC1 [dalcetrapib, Dalcetrapib]
- PSA [2]: 46 Å^2
- cLogDpH7.4 [4]: 7.2
- increase of AUC(0–36) by a high‐fat meal compared to fasting conditions [5]: 1.6 fold
- increase of C max by a high‐fat meal compared to fasting conditions [5]: 2.3 fold
- t 1/2 ([6]; once daily doses between 300 and 1200 mg, short‐term investigations): 30 h
- accumulation in adipose tissue ([6]; other CETP inhibitors): no accumulation in adipose tissue

Structure (SMILES): Cc1cc(C)c2c(c1)[C@@H](N(Cc1cc(C(F)(F)F)cc(C(F)(F)F)c1)c1nnn(C)n1)CCCN2C[C@H]1CC[C@H](C(=O)O)CC1 [evacetrapib, Evacetrapib]
- PSA [2]: 87 Å^2
- cLogDpH7.4 [4]: 7.9
- increase of AUC(τ) by a high‐fat meal compared to fasting conditions [5]: 1.4 fold
- increase of C max by a high‐fat meal compared to fasting conditions [5]: 1.5 fold
- accumulation in adipose tissue ([6]; human, in vivo): no accumulation in adipose tissue
- t 1/2 ([6]; once daily doses between 10 and 600 mg for up to 15 days): 40 h

Structure (SMILES): CCOC(=O)N1c2ccc(C(F)(F)F)cc2[C@@H](N(Cc2cc(C(F)(F)F)cc(C(F)(F)F)c2)C(=O)OC)C[C@H]1CC [torcetrapib, Torcetrapib]
- PSA [2]: 59 Å^2
- cLogDpH7.4 [4]: 7.6
- accumulation in adipose tissue ([6]; human, in vivo): no accumulation in adipose tissue
- t 1/2 ([6]; single ascending dose study): 211 h
